pIC50: −log10 of the molar value. Read-outs that look alike come from different tables or passages of the source.
Assays:
[1] = test system: Hs 746T (human gastric carcinoma cell line); assay: 48 hr CTG viability assay, Hs 746T; type: cell-based; settings: Hs746T; for pIC50: 48 hr CTG, read-out: Hs 746T IC50
Protocol: (§1) A viability assay was conducted for 48 hours to evaluate the inhibition of cancer cell growth by proteasome inhibitors. Briefly, the candidate cell line was plated with a 96-well plate following density of cells, respectively. 6×10^3 Cells/well for A2780 (human ovarian cancer cell line) and MDA-MB-468 (breast carcinoma), 8×10^3 Cells/well for Hs746T (human gastric carcinoma cell line), 1.1×10^4 Cells/well for MM1 S and RPMI 8226 (multiple myeloma). After 24 hours, the cells were treated with various concentrations of the compound (ranging from 0.0015 uM to 10 uM). […] After 48 hours of incubation at 37° C., 5% CO2 incubator, cells were analyzed for viability using the CellTiter-Glo Luminescent Cell Viability assay (Promega, Cat #G7570). All viability assays were performed in duplicate and Luminescence was read using an Envision (Perkin Elmer, USA). Data were analyzed using XLfit software. […] (human gastric carcinoma cell line), MM1 S (B lymphoblast cell line), and RPMI 8226 (B lymphocyte cell line, multiple myeloma). Inhibition is indicated as IC50 [nM] (“-”=not measured).

[2] = test system: RPMI 8226 (B lymphocyte cell line, multiple myeloma); assay: 48 hr CTG viability assay, RPMI 8226; type: cell-based; settings: Homo sapiens; for pIC50: RPMI-8226, 48 hr CTG, read-out: RPMI-8226 IC50
Protocol: as §1

[3] = biological target: T1, β5 subunit of the human constitutive proteasome (CPS) (Homo sapiens, UniProt P28074); assay: β5 inhibition assay, human constitutive proteasome (Suc-LLVY-AMC); type: biochemical; settings: IC50 class, Suc-LLVY-AMC substrate
T1 construct: purchased Boston Biochem E-360
Protocol: The enzymatic activity of the β5 subunit of the human constitutive proteasome (CPS) is analyzed. In another assay, which differs from the assay of the human constitutive proteasome only in using the human immunoproteasome (IPS) the enzymatic activity of the β5 subunit of the human immunoproteasome (IPS) is analyzed. […] Inhibition is indicated as IC50 [nM] (“-”=not measured).

[4] = biological target: T2, β5 subunit of the human immunoproteasome (IPS) (Homo sapiens, UniProt P28062); assay: β5 inhibition assay, human immunoproteasome (Suc-LLVY-AMC); type: biochemical; settings: IC50 class, Suc-LLVY-AMC substrate
T2 construct: purchased Boston Biochem E-370
Procedure, shortened: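 Human immunoproteasome (1 nM final) was preincubated 10 min at RT with compound in 100 mM HEPES pH 7.5, 50 mM NaCl, 0.02% SDS, 1 mM DTT. Suc-LLVY-AMC (22.6 μM final) was then added for 4 h at RT in the dark. After stopping with 1 μM bortezomib, AMC fluorescence was read (ex 355/em 460 nm).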

[5] = test system: A549 (human lung carcinoma cell line); assay: Glo assay of A549 cells (Table 3; ProteasomeGlo plating scheme); type: cell-based; settings: Homo sapiens; for pIC50: A549 cells, read-out: PGLo A549
Procedure, shortened: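 Luminescent read-out of cellular chymotrypsin-like proteasome activity: cells exposed to compound 105 min at 37° C., 5% CO2, then given Suc-LLVY-Glo reagent, shaken 2-5 min and kept dark 10-15 min before reading. Values are IC50 [nM].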

[6] = test system: MM1 S (B lymphoblast cell line); assay: 48 hr CTG viability assay, MM1S; type: cell-based; settings: Homo sapiens; for pIC50: 48 hr CTG, read-out: MM1S IC50
Protocol: as §1

| Structure (SMILES) | pIC50 [1] | pIC50 [2] | pIC50 [3] | pIC50 [4] | pIC50 [5] | pIC50 [6] | IC50 ([1]; 48 h, read-out: Hs 746T IC50 [nM]) | IC50 ([2]; RPMI-8226, 48 h, read-out: RPMI-8226 IC50 [nM]) | IC50 ([5]; A549, read-out: PGLo A549 [nM]) | IC50 ([6]; 48 h, read-out: MM1S IC50 [nM]) |
| --- | --- | --- | --- | --- | --- | --- | --- | --- | --- | --- |
| Cc1ccc2cc1CNC(=O)[C@H](CCc1ccccc1)NC(=O)[C@@H](NC(=O)C1CC3(C1)CN(C)C3)CC(=O)N1CCCC(CCO2)C1 (stereo partly drawn) [Compound 714, 2-methyl-N-((9S,12S)-5^4-methyl-8,11,14-trioxo-9-phenethyl-4-oxa-7,10-diaza-1(3,1)-piperidina-5(1,3)-benzenacyclotetradecaphane-12-yl)-2-azaspiro[3.3]heptane-6-carboxamide] | 6.30 to 7.00 | > 7.00 | > 7.00 | > 7.00 | > 7.00 | 6.30 to 7.00 | – | – | – | – |
| O=C(Cc1ccccc1)N[C@H]1CC(=O)N2CCCC(CCOc3ccc(F)c(c3)CNC(=O)[C@H](CCc3ccccc3)NC1=O)C2 (stereo partly drawn) [Compound 661, N-((9S,12S)-5^4-fluoro-8,11,14-trioxo-9-phenethyl-4-oxa-7,10-diaza-1(3,1)-piperidina-5(1,3)-benzenacyclotetradecaphane-12-yl)-2-phenylacetamide] | > 7.00 | > 7.00 | > 7.00 | > 7.00 | > 7.00 | > 7.00 | – | – | – | – |
| Cc1ccc2cc1CNC(=O)[C@H](CCc1ccccc1)NC(=O)[C@@H](NC(=O)C(C)(C)CO)CCC(=O)NCCCCO2 [Compound 726, 3-hydroxy-2,2-dimethyl-N-((11S,14S)-1^4_ methyl-8,12,15-trioxo-1^4-phenethyl-2-oxa-7,13,16-triaza-1(1,3)-benzenacycloheptadecaphane-11-yl)propanamide] | 6.00 to 6.30 | 6.30 to 7.00 | > 7.00 | > 7.00 | 6.30 to 7.00 | 6.30 to 7.00 | – | – | – | – |
| Cc1ccc2cc1CNC(=O)[C@H](CCc1ccccc1)NC(=O)[C@@H](NC(=O)Cc1ccccc1)CCN(C)C(=O)N1CCCC(CCO2)C1 (stereo partly drawn) [Compound 696, N-((9S,12S)-5^4,15-dimethyl-8,11,16-trioxo-9-phenethyl-4-oxa-7,10,15-triaza-1(3,1)-piperidina-5(1,3)-benzenacyclohexadecaphane-12-yl)-2-phenylacetamide] | – | – | > 7.00 | > 7.00 | – | – | < 100 nM | < 100 nM | < 100 nM | < 100 nM |
| Cc1ccc2cc1CNC(=O)[C@H](CCc1ccccc1)NC(=O)[C@@H](NC(=O)N1CCNCC1)CC(=O)N1CCCC(CCO2)C1 (stereo partly drawn) [Compound 716, N-((9S,12S)-5^4-methyl-8,11,14-trioxo-9-phenethyl-4-oxa-7,10-diaza-1(3,1)-piperidina-5(1,3)-benzenacyclotetradecaphane-12-yl)piperazine-1-carboxamide] | 6.30 to 7.00 | > 7.00 | > 7.00 | > 7.00 | > 7.00 | > 7.00 | – | – | – | – |
| Cc1ccc2cc1CNC(=O)[C@H](CCc1ccccc1)NC(=O)[C@@H](NC(=O)CCOCCCC1CCCC1)CC(=O)N1CCCC(CCO2)C1 (stereo partly drawn) [Compound 692, 3-(3-cyclopentylpropoxy)-N-((9S,12S)-5^4-methyl-8,11,14-trioxo-9-phenethyl-4-oxa-7,10-diaza-1(3,1)-piperidina-5(1,3)-benzenacyclotetradecaphane-12-yl)propanamide] | > 7.00 | > 7.00 | > 7.00 | > 7.00 | – | > 7.00 | – | – | – | – |
| Cc1ccc2cc1CNC(=O)[C@H](CCc1ccccc1)NC(=O)[C@@H](NS(=O)(=O)C1CCCCC1)CC(=O)N1CCCC(CCO2)C1 (some centres unmarked) [Compound 579] | > 7.00 | > 7.00 | – | – | – | > 7.00 | – | – | – | – |
| Cc1ccc2cc1CNC(=O)[C@H](CCc1ccccc1)NC(=O)[C@@H](NC(=O)Cc1ccc(NC(=O)[C@@H](N)CC(=O)O)cc1C)CC(=O)N1CCCC(CCO2)C1 (some centres unmarked) [Compound 578] | > 7.00 | > 7.00 | – | – | – | > 7.00 | – | – | – | – |
| Cc1ccc2cc1CNC(=O)[C@H](CCc1ccccc1)NC(=O)[C@@H](NC(=O)CCOC1CC3(C1)CN(C(=O)OC(C)(C)C)C3)CC(=O)N1CCCC(CCO2)C1 (some centres unmarked) [Compound 577] | > 7.00 | > 7.00 | – | – | – | > 7.00 | – | – | – | – |

From patent US20240415819A1, “MACROCYCLIC COMPOUNDS AS PROTEASOME SUBUNIT BETA TYPE-5 INHIBITORS” (Lead Discovery Center GmbH, priority 2021, published 2024)
